Laboratory results taken from patent publication US20230257484A1, “DENDROBIUM OFFICINALE OLIGOSACCHARIDE, DENDROBIUM OFFICINALE OLIGOSACCHARIDE DERIVATIVE AND PREPARATION METHOD AND USE THEREOF” (KUNMING INSTITUTE OF BOTANY, CHINESE ACADEMY OF SCIENCES, priority 2021, published 2023).
Values belong to the compound of their own block, whether it stands above or below them.

Assays:
[1] = tested on: TNF-α secretion, RAW264.7 cells; test: Immunomodulatory activity: TNF-α secretion by RAW264.7 cells (ELISA); assay type: cell-based; details: for TNF-α: RAW264.7, 24 h
Description: (§1) Evaluation of the Immunomodulatory Activity of Dendrobium officinale Oligosaccharides RAW264.7 cells, TNF-α kit, IL-6 kit, distilled water. The logarithmic-growth RAW264.7 cells were taken and inoculated into 12-well plates after cell counting. The plate was placed in an incubator overnight, and then the cell supernatant was discarded. Different concentrations of Dendrobium officinale oligosaccharides, lipopolysaccharides and basal medium 1640 were added under aseptic operation, and the supernatant after 24 h of intervention was collected and stored at −20° C. for later use. The changes in TNF-α and IL-6 secretion were detected according to the instructions of the ELISA kit. The OD value was measured by a microplate reader with a detection wavelength of 450 nm. The OD value was substituted into the regression equation of the standard curve to calculate the increase rate of TNF-α and IL-6 secretion.

[2] = target: porcine pancreatic elastase (Sus scrofa, UniProt P00772); test: Elastase inhibition rate; assay type: biochemical
Sequence of porcine pancreatic elastase (P00772 27-266): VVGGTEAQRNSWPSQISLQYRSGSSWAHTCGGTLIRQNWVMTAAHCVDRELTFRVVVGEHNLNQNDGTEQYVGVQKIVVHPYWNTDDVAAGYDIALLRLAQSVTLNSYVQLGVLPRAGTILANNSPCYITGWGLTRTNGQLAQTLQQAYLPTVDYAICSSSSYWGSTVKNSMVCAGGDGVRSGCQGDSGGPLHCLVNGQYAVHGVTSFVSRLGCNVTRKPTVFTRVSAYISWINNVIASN
Description: Experiment on the Elastase Inhibition Rate
Sample, positive control of catechin, Tris, HCl, porcine pancreatic elastase, N-succinyl-alanine-alanine-alanine-p-nitroaniline, DMSO.
Preparation of a sample solution: 1 mg/mL sample solution was prepared (pure water or a buffer solution was used for preparation, and if insoluble in water or the buffer solution, the sample was firstly dissolved with DMSO, and then water or the buffer solution was added. In principle, the content of DMSO should not exceed 5%).
Preparation of a positive control: 1 mg/mL catechin;
Preparation of a buffer solution: 0.1 M of Tris-HCl buffer solution, PH=8.0;
Preparation of a reaction substrate solution: N-succinyl-alanine-alanine-alanine-p-nitroaniline (AAAPVN) solution (2 mM);
Preparation: 28.5 μL of porcine pancreatic elastase solution (0.171 U/mL) was taken and dissolved in 10 mL of Tris-HCl buffer solution.
(2) The solution of 50 μL of sample, 50 μL of porcine pancreatic elastase and 100 μL of reaction substrate was added to a 96-well plate.
(3) After keeping at room temperature for 5 min, an absorbance at 420 nm was measured.
Elastase inhibition rate (%)=(1−sample OD420 nm/experimental well OD420 nm)×100%.

RAW264.7 cells = test: Survival of RAW264.7 cells; assay type: cell-based
collagenase = test: Collagenase inhibition rate; assay type: biochemical
Description: Experiment on Collagenase Inhibition Rate
Protease buffer solution, protease, protease substrate, inhibitor (1,10-Phenanthroline). All reagents were stored at −20° C.
a. Background blank well: 100 μL/well of protease buffer solution.
b. Sample well: 100 μL, prepared into different concentrations.
c. Positive control well: 10 μL of protease+90 μL of protease buffer solution.
(3) After adding reagents according to the above groups, 100 μL of collagenase reaction mixture was added to each well, incubated in the dark, and then the OD value at 345 nm was measured.
The incubation time depended on the activity of the sample to be tested, and the low activity sample could be incubated for 1-3 h.
Collagenase inhibition rate (%)=(ODbackground well−ODsample well)/(ODbackground well−ODpositive control well).

Hacat cells = test: Survival of Hacat cells; assay type: cell-based, human
[3] = DPPH free radical scavenging; assay type: biochemical
Description: Experiment on the DPPH Free Radical Scavenging
DPPH, water-soluble vitamin E (Trolox) (Trolox dissolved in absolute ethanol, with a concentration of 10 mM, stored at −20° C.), pure water.
The drug to be tested was mixed with DPPH (a final concentration of 100 µM) and reacted at 30° C. for 1 h. 3 repeating wells were set, and a blank control well without drug and a Trolox positive control well were set at the same time. The OD value was measured by a microplate reader with a detection wavelength of 515 nm, and the anti-oxidation rate was calculated.
Anti-oxidation rate (%)=(1−experimental well OD515nm/blank well OD515nm)×100%.

[4] = tested on: secretion of hyaluronic acid, Hacat cells; test: Promoting secretion of hyaluronic acid in Hacat cells (ELISA); assay type: cell-based, human; details: for Secretion of hyaluronic acid: Hacat cells, 24 h
Description: Experiment on Promoting Secretion of Hyaluronic Acid
Human immortalized […] (Hacat cells), human hyaluronic acid Elisa kit, distilled water.
A 96-well plate was inoculated with […] of cell suspension per well, and a concentration of the suspension was 4×10^5 cells/mL. After 24 h of incubation, the original culture medium was discarded, then the cells were washed with PBS for 1-2 times and the serum-free medium containing different concentrations of the drug to be tested was added thereto, and continued to incubate for 24 h. A blank control without drugs and a TGF-β positive control were set. Then the cells were lysed with ripa lysis buffer solution containing 1% PMSF, the supernatant after centrifugation was taken, and the secretion of hyaluronic acid was detected according to the method provided in the […]. The OD value was measured by a microplate reader with a detection wavelength of 450 nm. The OD value was substituted into the regression equation of the standard curve to calculate the increase rate of the secretion of hyaluronic acid.

[5] = tested on: IL-6 secretion, RAW264.7 cells; test: Immunomodulatory activity: IL-6 secretion by RAW264.7 cells (ELISA); assay type: cell-based; details: for IL-6 pg/mL: RAW264.7, 24 h
Description: as §1

[6] = final reaction concentration 4%
[7] = final reaction concentration 8%
[8] = final reaction concentration 11%
[9] = final reaction concentration 15%
[10] = final reaction concentration 20%
[11] = final reaction concentration 1%

elastase inhibition activity ([2]; concentration of 20%): > 10% | Elastase inhibition rate % [2, 6]: −2.135% | Elastase inhibition rate % [2, 7]: 3.886% | Elastase inhibition rate % [2, 8]: 8.417% | Elastase inhibition rate % [2, 9]: 9.723% | Elastase inhibition rate % [2, 10]: 15.827% | collagenase inhibition activity (collagenase; concentration of 0.4%-4%): > 50% | Collagenase inhibition rate (%) (collagenase; final reaction concentration 0.4%): 50.32% | Collagenase inhibition rate (%) (collagenase; final reaction concentration 0.8%): 63.63% | Collagenase inhibition rate (%) (collagenase; [11]): 72.20% | Collagenase inhibition rate (%) (collagenase; final reaction concentration 2%): 84.80% | Collagenase inhibition rate (%) (collagenase; [6]): 110.54%
Structure (SMILES): O=C(O)C1O[C@@H](O)C(O)C(O)[C@@H]1O[C@@H]1OC(CO)[C@@H](O[C@@H]2OC(CO)[C@@H](O[C@@H]3OC(CO)[C@@H](O[C@@H]4OC(CO)[C@H](O[C@@H]5OC(CO)[C@H](O)C(O)C5O)C(O)C4O)C(O)C3O)C(O)C2O)C(O)C1O (stereo partly shown) [Dendrobium officinale oligosaccharide]
secretion of TNF-α by RAW264.7 macrophages (in words) ([1]; concentration of 3.125 μg/mL, equivalent to the positive control LPS): significantly increased | TNF-α ([1]; final reaction concentration 3.125 μg/mL): 1062.29 pg/mL | TNF-α ([1]; final reaction concentration 6.25 μg/mL): 35.66 pg/mL | TNF-α ([1]; final reaction concentration 12.5 μg/mL): 53.86 pg/mL | survival rate and survival time of cells (RAW264.7 cells): increase the survival rate and survival time | survival rate and survival time of cells (Hacat cells): increase the survival rate and survival time | anti-oxidation rate ([3]; concentration of 15%-20%): > 20% | Anti-oxidation rate (%) [3, 6]: 11.335% | Anti-oxidation rate (%) [3, 7]: 14.346% | Anti-oxidation rate (%) [3, 8]: 16.213% | Anti-oxidation rate (%) [3, 9]: 21.155% | Anti-oxidation rate (%) [3, 10]: 25.217% | activity to promote the secretion of hyaluronic acid ([4]; concentration of 8%-20%): > 0.3 ng/mL | Secretion of hyaluronic acid [4, 6]: 0.2294 ng/mL | Secretion of hyaluronic acid [4, 7]: 0.5530 ng/mL | Secretion of hyaluronic acid [4, 8]: 0.3691 ng/mL | Secretion of hyaluronic acid [4, 9]: 0.4930 ng/mL | Secretion of hyaluronic acid [4, 10]: 0.5392 ng/mL | secretion of IL-6 by RAW264.7 macrophages (in words) ([5]; concentration of 50 μg/mL, equivalent to the positive control LPS): significantly increased | IL-6 pg/mL ([5]; final reaction concentration 50 μg/mL): 1593.01 pg/mL | IL-6 pg/mL ([5]; final reaction concentration 100 μg/mL): 1376.42 pg/mL | IL-6 pg/mL ([5]; final reaction concentration 200 μg/mL): 1117.33 pg/mL

Collagenase inhibition rate (%) (collagenase; [11]): 102.23%
Structure (SMILES): c1cnc2c(c1)ccc1cccnc12 [Positive inhibitor, 1,10-Phenanthroline, reference compound]

Structure (SMILES): Cc1c(C)c2c(c(C)c1O)CCC(C)(C(=O)O)O2 (stereo not shown) [Trolox, reference compound]
Anti-oxidation rate (%) ([3]; final reaction concentration 25 (unit not given), DPPH, 30° C., 1 h): 95.668%

inhibition at 100 µg/mL ([2]; final reaction concentration 100 μg/ml): 68.5%
Structure (SMILES): O=C(O[C@@H]1Cc2c(O)cc(O)cc2O[C@@H]1c1ccc(O)c(O)c1)c1cc(O)c(O)c(O)c1 [epicatechin gallate, reference compound]
